From paper PMC5979572, “Imine Deaminase Activity and Conformational Stability of UK114, the Mammalian Member of the Rid Protein Family Active in Amino Acid Metabolism” (International Journal of Molecular Sciences, 2018)

Assays:
[1] = target: T1, UK114 (Capra hircus, UniProt P80601); assay: decrease of semicarbazone formation rate, […] nm, imino acid generated in situ; assay type: biochemical; settings: 50 mM sodium pyrophosphate pH 8.7, 25 °C, 10 mM semicarbazide, catalase
T1 construct: gene RIDA; full length 137 residues, recombinant from E. coli (pET-15b), N-terminal His-tag cut by thrombin leaving GSH before Met1; homotrimer
T1 sequence (P80601 1-137): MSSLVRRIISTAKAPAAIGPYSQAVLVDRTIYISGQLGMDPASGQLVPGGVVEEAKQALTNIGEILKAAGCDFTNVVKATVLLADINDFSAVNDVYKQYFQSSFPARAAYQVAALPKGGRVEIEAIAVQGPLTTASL

[2] = target: T2, D-amino acid oxidase (DAAO) (Sus scrofa, UniProt P00371); assay: H2O2 production (HRP / o-dianisidine) and semicarbazone formation; assay type: biochemical; settings: 50 mM sodium pyrophosphate pH 8.7, 25 °C
T2 construct: gene DAO; native, purified from pig kidneys

[3] = target: the molecule itself; assay: SEC; analytical gel filtration on a calibrated Superdex 75 (10/30) column equilibrated with 0.9% NaCl; standards BSA dimer, BSA monomer, carbonic anhydrase, cytochrome c

T2 sequence (P00371 whole entry): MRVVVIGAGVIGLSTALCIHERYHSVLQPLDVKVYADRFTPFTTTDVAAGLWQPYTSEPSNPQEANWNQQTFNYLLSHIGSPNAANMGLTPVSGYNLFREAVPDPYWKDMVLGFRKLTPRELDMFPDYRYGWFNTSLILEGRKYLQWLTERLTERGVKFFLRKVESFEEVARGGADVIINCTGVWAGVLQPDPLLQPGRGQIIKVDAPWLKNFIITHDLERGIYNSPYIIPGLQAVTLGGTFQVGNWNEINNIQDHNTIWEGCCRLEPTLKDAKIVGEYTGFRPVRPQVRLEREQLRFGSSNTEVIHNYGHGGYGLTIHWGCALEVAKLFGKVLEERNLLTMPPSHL

For `CC(=N)C(=O)O` [2-iminopropionate], the “decrease of semicarbazone formation rate, 248 nm, imino acid generated in situ” value ([1]; imino acid from 5 mM L-Ala + LAAO or D-Ala + DAAO) was “the highest specificity is indeed observed with 2-iminopyruvate (2-iminopropionate)”.

`CC(C)C[C@@H](N)C(=O)O` [D-Leu] was tested, and the “H2O2 production (HRP / o-dianisidine) and semicarbazone formation” value [2] was “Semicarbazone formation was observed using D-Ala, D-Leu, but not D-Ser, D-Thr, or D-Lys”.

With `CC(C)CC(=N)C(=O)O` [imino acid derived from Leu] the “decrease of semicarbazone formation rate, 248 nm, imino acid generated in situ” value ([1]; imino acid from 5 mM L-Leu + LAAO or D-Leu + DAAO) was “UK114 activity using the imino acid produced by DAAO from D-Leu was indistinguishable”.

B1: recombinant goat UK114 (Capra hircus), thrombin-cleaved (enzyme, Capra hircus (goat))
chain: GSHMSSLVRRIISTAKAPAAIGPYSQAVLVDRTIYISGQLGMDPASGQLVPGGVVEEAKQALTNIGEILKAAGCDFTNVVKATVLLADINDFSAVNDVYKQYFQSSFPARAAYQVAALPKGGRVEIEAIAVQGPLTTASL
notes: they precede the initiator methionine of UK114; also called RidA; not shown: His6, N-terminal, cleaved
With B1 the “stoichiometry N” value [3] was 3.
